According to publication PMC11249637, “Interaction of the Atypical Tetracyclines Chelocardin and Amidochelocardin with Renal Drug Transporters” (ACS Pharmacology & Translational Science, 2024):

How the values were obtained:
mOat3 = molecular target: T1, mOat3 (Mus musculus, UniProt O88909); test: Two-point inhibition of mOat3-mediated ES uptake in transfected HEK293 cells; type: in vitro ADME; settings: ES 1 μM, 1 min
T1 construct: expressed in transfected cells; host or cells: HEK293
T1 sequence (O88909 1-537): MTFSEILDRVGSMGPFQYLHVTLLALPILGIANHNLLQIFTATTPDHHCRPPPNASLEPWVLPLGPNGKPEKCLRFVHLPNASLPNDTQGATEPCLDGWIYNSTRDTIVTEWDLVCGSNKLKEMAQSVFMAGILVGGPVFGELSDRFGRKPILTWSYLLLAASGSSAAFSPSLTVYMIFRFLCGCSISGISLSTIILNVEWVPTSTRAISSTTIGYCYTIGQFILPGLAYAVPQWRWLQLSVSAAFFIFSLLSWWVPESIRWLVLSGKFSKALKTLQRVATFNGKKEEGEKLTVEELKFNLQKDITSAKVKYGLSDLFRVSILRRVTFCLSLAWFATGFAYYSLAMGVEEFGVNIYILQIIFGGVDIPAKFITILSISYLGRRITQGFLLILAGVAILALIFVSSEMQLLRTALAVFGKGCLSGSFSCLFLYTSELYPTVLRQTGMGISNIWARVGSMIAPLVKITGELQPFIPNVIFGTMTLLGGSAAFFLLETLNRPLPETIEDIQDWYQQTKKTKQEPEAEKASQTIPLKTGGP
Method: (§1) Well-characterized mOct1-, mOct2-, mOat1-, mOat2-, mOat3-, mMate1-, hOAT1-, hOAT3-, hOAT4-, hMRP2-, mMdr1a- and mMdr1b-transfected HEK293 cells and the respective vector-transfected control HEK293 cells were used.[42],[51],[52] All HEK293 cells (transporter-transfected and vector-transfected) were cultured in DMEM (Sigma, high glucose, 10% FBS, 1% penicillin (10,000 Units/mL)/streptomycin (10 mg/mL)) at 37°C under 5% CO2 in humidified atmosphere. The cells were routinely checked for the absence of mycoplasma infection. For the preparation of HEK293 cell monolayers, 24-well plates were pretreated with a poly-D-lysine hydrobromide solution (0.1 mg/mL). […]
(§2) For the uptake assay, the growth medium was aspirated, and each well was rinsed three times with 0.5 mL of incubation buffer (HBSS supplemented with 20 mM HEPES, pH 7.4) and incubated for 20 min at 37 °C. […] Cells were solubilized with 0.6 mL of 1N NaOH overnight and transferred into scintillation vials. ^3H and ^14C contents were measured after the addition of 2.5 mL of scintillator in a liquid scintillation counter.
(§3) The cellular protein amount was determined in parallel for each cell line (vector- and transporter-transfected) from six wells in a different 24-well reference plate using the Bradford method. […]
(§4) The inhibitory effect (I(%)) was calculated according to the formula: [drawing 5] […]

mMate1 = molecular target: T2, mMate1 (Mus musculus, UniProt Q8K0H1); test: Two-point inhibition of mMate1-mediated metformin uptake in transfected HEK293 cells; type: in vitro ADME; settings: 1 and 10 μM; metformin 20 μM, 1 min
T2 construct: expressed in transfected cells; host or cells: HEK293
T2 sequence (Q8K0H1 1-567): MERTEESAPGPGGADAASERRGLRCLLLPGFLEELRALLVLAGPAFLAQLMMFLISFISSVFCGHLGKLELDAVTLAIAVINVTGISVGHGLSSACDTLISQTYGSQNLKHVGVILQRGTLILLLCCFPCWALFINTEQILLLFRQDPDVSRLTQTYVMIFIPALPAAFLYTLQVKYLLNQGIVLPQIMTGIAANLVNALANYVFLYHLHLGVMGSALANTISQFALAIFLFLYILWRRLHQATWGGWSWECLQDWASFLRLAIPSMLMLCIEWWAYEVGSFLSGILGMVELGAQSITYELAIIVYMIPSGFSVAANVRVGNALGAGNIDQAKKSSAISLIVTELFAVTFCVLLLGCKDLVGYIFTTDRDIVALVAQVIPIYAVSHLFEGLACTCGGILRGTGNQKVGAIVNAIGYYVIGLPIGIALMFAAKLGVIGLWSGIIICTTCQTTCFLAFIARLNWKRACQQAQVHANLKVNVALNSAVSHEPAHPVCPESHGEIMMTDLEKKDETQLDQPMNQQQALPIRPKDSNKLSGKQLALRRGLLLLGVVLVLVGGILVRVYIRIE
Method: as §1, §2, §3, §4

Row | Compound | inhibitory effect on mOat3 (in words) (mOat3; 1 and 10 μM) | inhibitory effect on mMate1 (in words) (mMate1) | inhibition at 10 µM (mOat3; HEK293, at 10 μM, read-out: inhibitory effect on mOat3) [%]
1 | Cc1ccc2c(C)c3c(c(O)c2c1O)C(=O)[C@@]1(O)C(=O)C(C(N)=O)=C(O)[C@@H](N)[C@H]1C3 [CDCHD, amidochelocardin] | no inhibitory effect | did not have major effects | 
2 | CC(=O)C1=C(O)[C@@H](N)[C@H]2Cc3c(c(O)c4c(O)c(C)ccc4c3C)C(=O)[C@@]2(O)C1=O [CHD, chelocardin] |  | weak inhibitory effect | > 50
